Reference: article PMC6128854 (Scientific Reports, 2018)

Tested on: high voltage-activated (HVA) calcium channel currents in rat DRG neurons
Type: cell-based

ω-agatoxin
further inhibition of the residual Ba2+ currents: 20%
